Molecular target: HDM2 (MDM2) (Homo sapiens, UniProt Q00987)
Experiment: HTR-FRET competition assay of biotin-p53 / GST-HDM2 binding

Chain of HDM2 (MDM2) (Q00987 whole entry): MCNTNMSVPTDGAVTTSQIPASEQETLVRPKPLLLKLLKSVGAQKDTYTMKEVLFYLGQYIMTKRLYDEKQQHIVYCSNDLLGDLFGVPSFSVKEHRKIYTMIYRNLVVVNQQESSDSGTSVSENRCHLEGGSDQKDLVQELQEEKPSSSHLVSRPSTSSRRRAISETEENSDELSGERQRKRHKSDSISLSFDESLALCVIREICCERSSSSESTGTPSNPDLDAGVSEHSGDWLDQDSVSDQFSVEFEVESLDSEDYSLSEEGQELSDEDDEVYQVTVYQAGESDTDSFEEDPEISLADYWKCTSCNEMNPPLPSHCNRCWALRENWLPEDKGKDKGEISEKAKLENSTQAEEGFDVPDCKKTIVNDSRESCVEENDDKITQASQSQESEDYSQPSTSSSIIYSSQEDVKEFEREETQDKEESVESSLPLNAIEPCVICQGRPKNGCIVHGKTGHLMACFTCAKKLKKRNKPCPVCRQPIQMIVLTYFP

SMILES: CCC[C@@H](C)[C@H](O)[C@H](C)[C@@H](O)[C@@H](C)[C@H](Cc1nc(C2=N[C@@](C)(C3=N[C@@](C)(C(=O)N[C@H]([C@@H](O)[C@@H](C)C(=O)O)[C@@H](C)CC)CS3)CS2)cs1)OC [compound 1, hoiamide D]
- IC50: 4.5 µM

— PMC3248991 (2011)
